Experimental findings from patent US4369188A, “2-Thioxobenz[cd]indole-1(2H)-acetic acid derivatives” (Ayerst, McKenna & Harrison Inc., priority 1981, dated 1983) are described below.

The subject of experiment [1] is dulcitol accumulation in the lens. The experiment can be described thus: galactosemic rats: decrease of dulcitol accumulation in the lens. The format is in vivo, rat (Sprague-Dawley). The source says:
The aldose reductase inhibiting property of a compound of formula I and its utilization in diminishing and alleviating diabetic complications also are demonstrable in experiments using galactosemic rats, see D. Dvornik et al., Science, 182, 1146 (1973). Such experiments are exemplified hereinbelow after the listing of the following general comments pertaining to these experiments:
(a) Four or more groups of six male rats, 50-70 g, Sprague-Dawley strain, were used. The first group, the control group, was fed a mixture of laboratory chow (rodent laboratory chow, Purina) and glucose at 20% (w/w %) concentration. The untreated galactosemic group was fed a similar diet in which galactose is substituted for glucose. The other groups were fed diets containing various amounts of the compound of formula I in the galacetose containing diet. The concentration of galactose in the diet of the treated groups was the same as that for the untreated galactosemic group.
(b) After four days, the animals were killed by decapitation. The eyeballs were removed and punctured with a razor blade; the freed lenses were rolled gently on filter paper and weighed. The sciatic nerves were dissected as completely as possible and weighed. Both tissues were frozen and kept up to two weeks before being analyzed for dulcitol.
(c) The tissues were homoginized in 5% (w/v) trichloroacetic acid and the polyol determination on the extracts were performed by a modification of the procedure of M. Kraml and L. Cosyns, Clin. Biochem., 2, 373 (1969). Only two minor reagent changes were made: (a) The rinsing mixture was an aqueous 5% (w/v) trichloroacetic acid solution and (b) the stock solution was prepared by dissolving 25 mg of dulcitol in 100 ml of an aqueous trichloroacetic acid solution. [N.B.: For each experiment the average value found in the tissued from rats fed the glucose diet was subtracted from the individual values found in the corresponding rat tissue to obtain the amount of polyol accumulated].
The results obtained are exemplified in Table 2, wherein the values under L and N respectively, represent the percentage decreases of dulcitol accumulation in the tissues of the lens, and sciatic nerve for treated rats as compared to controls.

The next experiment deals with T1, lens aldose reductase (Bos taurus, UniProt P16116).
T1 construct: the preparation of the enzyme from bovine lens; from tissue; host or cells: bovine lens
Nature of the experiment: in vitro aldose reductase inhibition (modified Hayman and Kinoshita procedure). The experiment is classed as biochemical. The conditions noted are these: enzyme from bovine lens, read-out: % Inhibition at Different Molar Concentrations (in vitro); for inhibition at 10 µM: 10^-5 molar; for inhibition at 1 µM: 10^-6 molar; for inhibition at 0.1 µM: 10^-7 molar. The source says: In the present case, the procedure of Hayman and Kinoshita is modified in that the final chromatography step is omitted in the preparation of the enzyme from bovine lens.
Table 1 gives the results of the compounds of formula I or an addition salt thereof when evaluated in the above in vitro test.

The mark [2] stands for this setting: 131 mg/kg/day in galactose diet, 4 days, vs controls.

Consider `O=C(O)CN1C(=S)c2cccc3c(Cl)cc(Cl)c1c23` [6,8-dichloro-2-thioxo-benz[cd]indole-1(2H)-acetic acid], for which the “percentage decrease of dulcitol accumulation in lens (L)” value (from here on “percentage decrease”) in experiment [1] (128 mg/kg/day in galactose diet, 4 days, vs controls) is 18%. On lens aldose reductase, the inhibition at 10 µM was determined as 94%, the inhibition at 1 µM was determined as 76% and the inhibition at 0.1 µM worked out at 30%.
Take `O=C(O)CN1C(=S)c2cccc3c(Cl)ccc1c23` [6-chloro-2-thioxo-benz[cd]indole-1(2H)-acetic acid]: the “percentage decrease” value in experiment [1] (134 mg/kg/day in galactose diet, 4 days, vs controls) amounted to 27%. Besides, on lens aldose reductase, the inhibition at 10 µM is 96%, the inhibition at 1 µM worked out at 91% and the inhibition at 0.1 µM stood at 66%.
Turning to `CN(C)CCCOC(=O)CN1C(=S)c2cccc3c(Cl)ccc1c23` [6-Chloro-2-thioxo-benz[cd]indole-1(2H)-acetic Acid, 3-Dimethylamino-1propylEster], in experiment [1] (144 mg/kg, 96 h), the “percentage decrease” value is 28%. In addition, on lens aldose reductase, the inhibition at 10 µM came out at 91%, the inhibition at 1 µM is 70% and the inhibition at 0.1 µM was found to be 14%.
Take `O=C(O)CN1C(=S)c2cccc3c(I)ccc1c23` [6-iodo-2-thioxo-benz[cd]indole-1(2H)-acetic acid]: the “percentage decrease” value in experiment [1] (141 mg/kg/day in galactose diet, 4 days, vs controls) came to 32%. On lens aldose reductase, the inhibition at 10 µM was found to be 93%, the inhibition at 1 µM came to 91% and the inhibition at 0.1 µM is 81%.
For the molecule `NCCOC(=O)CN1C(=S)c2cccc3cccc1c23` [2-Thioxo-benz[cd]indole-1(2H)-acetic Acid, 2-Amino-ethyl Ester], on lens aldose reductase, the inhibition at 10 µM is 83% and the inhibition at 1 µM was determined as 29%.
On to `O=C(O)CN1C(=S)c2cccc3c(Br)cc(Br)c1c23` [6,8-dibromo-2-thioxo-benz[cd]indole-1(2H)-acetic acid], for which the “percentage decrease” value in experiment [1] (setting [2]) was 9%. Further, on lens aldose reductase, the inhibition at 10 µM worked out at 89%, the inhibition at 1 µM came out at 56% and the inhibition at 0.1 µM amounted to 13%.
In the case of `O=C(O)CN1C(=S)c2cccc3cccc1c23` [2-thioxo-benz[cd]indole-1(2H)-acetic acid], the “percentage decrease” value in experiment [1] (165 mg/kg/day in galactose diet, 4 days, vs controls) turned out to be 18%. On lens aldose reductase, the inhibition at 10 µM came out at 93%, the inhibition at 1 µM is 87% and the inhibition at 0.1 µM came out at 61%.
As to `O=C(O)CN1C(=S)c2cccc3c(Br)ccc1c23` [6-Bromo-2-thioxo-benz[cd]indole-1(2H)-acetic Acid], in experiment [1] (setting [2]), the “percentage decrease” value was determined as 27%. Moreover, on lens aldose reductase, the inhibition at 10 µM was determined as 95%, the inhibition at 1 µM worked out at 91% and the inhibition at 0.1 µM came to 79%.
Regarding `O=C(O)CN1C(=S)c2cccc3c(F)ccc1c23` [6-fluoro-2-thioxo-benz[cd]indole-1(2H)-acetic acid], at lens aldose reductase, the inhibition at 10 µM is 94%, the inhibition at 1 µM was 88% and the inhibition at 0.1 µM was found to be 56%.
Take `CCOC(=O)CN1C(=S)c2cccc3cccc1c23` [2-thioxo-benz[cd]indole-1(2H)-acetic acid, ethyl ester]: the “percentage decrease” value in experiment [1] (150 mg/kg/day in galactose diet, 4 days, vs controls) is 11%. Besides, on lens aldose reductase, the inhibition at 10 µM stood at 66% and the inhibition at 1 µM was found to be 11%.
